The test system of assay [1] is human corneal epithelial cells (HCECs). The assay can be described thus: MQ on IL-6 production in HCECs in response to TLR agonists. Type of assay: cell-based. As to conditions: for production and secretion of IL6: MQ 50 μM overnight. The procedure: FIG. 26. MQ Reduces IL-6 Response to Toll 3 and Toll 5 Agonist. HCECs were cultured at a uniform density and allowed to adhere. Cells were then incubated overnight in MQ at a concentration of […] at 37° C. The following day, the HCECs were stimulated with FLA at a concentration of 100 ng/ml or P (I:C) at 500 μg/mL for four hours. Supernatants were collected and IL-6 concentrations were determined via ELISA.
To investigate the effects of MQ on cytokine activity, human corneal epithelial cells (HCECs) were stimulated with various TLR agonists and the production of cytokines was measured via ELISA. HCECs were seeded at a density of 2×10^5 cells/well and were treated overnight with MQ at a concentration of 50 μM and the following day they were stimulated with Flagellin (FLA) at 100 ng/ml or Poly (I:C) at a concentration of 500 μg/ml. After 4 hours, supernatant was collected and the concentration of IL-6 was determined via ELISA.
The effects of MQ on various other TLR pathways including: TLR 1/2 (PAM3CSK4), TLR 2/6 (FSL) TLR 4 (Lipopolysaccharide), TLR 7 (Imiquimod), and TLR 9 (ODN2006) was also investigated.

The subject of assay [2] is Raw 264.7 Cells. The assay can be described thus: NC on TNFα release in Raw 264.7 cells in response to TLR agonists. In kind it is cell-based, mouse. Particulars: 50 μM NC 18 hours. How it is done:
FIG. 27A and FIG. 27B. Metabolite NC on TNFα release in response to LPS in human and murine macrophages in vitro. Macrophages were plated at a uniform density of 0.2×10^6 cells/mL in 24 well plates. These cells (FIG. 27A) were allowed to adhere, or, in the case of THP-1 cells FIG. 27B), differentiate using PMA. They were then treated for 18 hours with 50 μM of metabolite NC before being stimulated with 0.1 ug of LPS-EK. Supernatant was collected between 4-6 hours after addition of LPS and debris was removed via centrifugation at 1250 rpm for 5 minutes. TNFα was quantified in the supernatant using sandwich ELISA with standards of known concentrations.
FIG. 28A and FIG. 28B. Metabolite NC on TNFα release in macrophages in response to various TLR agonists. Raw 264.7 cells (FIG. 28A) and THP-1 FIG. 28B) cells were plated at a uniform density of 0.2×10^6 cells per mL and stimulated with various TLR agonists: Pam3CSK4, Poly I:C, LPS, Fla, FSL-1, imiquimod (ImiQ), and ODN-2006. NC reduced TNFα release in response to TLR3 (p<0.0001 via student's t-test for both Raw 264.7 cells and THP-1 cells) and TLR4 agonists in both cell lines.
To investigate the effects of compound NC, macrophages were stimulated with LPS, an endotoxin associated with gram-negative bacteria. Human and murine macrophage-like cells (THP-1 cells and Raw 264.7 cells, respectively) were plated in 24 well plates at a uniform density of 0.2×10^6 cells/mL. Following 18 hours of pretreatment with 50 μM metabolite NC, they were stimulated with 10 μg/mL of LPS. After 4-6 hours, supernatant was collected and TNFα was quantified using sandwich ELISA. NC reduces TNFα release from both THP-1 and Raw 264.7 macrophage-like cells in response to TLR4 agonist LPS in vitro.
Metabolite NC reduces inflammation in response to TLR4 agonist LPS. To further investigate the specificity of NC's action in TLR signaling, Raw 264.7 (FIG. 28A) and THP-1 (FIG. 28B) cells were once again plated at a uniform density of 0.2×10^6 cells/mL, treated with 50 μM metabolite NC for 18 hours, and stimulated with agonists for TLR1/2, TLR3, TLR4, TLR5, TLR6/2, TLR7 and TLR9. After 4-6 hours, supernatant was collected and TNFα was quantified via sandwich ELISA.

Entries after “also recorded” stand apart in the source; their conditions may differ.

On to Prednicarbate [MQ], for which the “production and secretion of IL6” value in assay [1] (Flagellin (FLA) 100 ng/ml 4 hours) and in assay [1] (Poly (I:C) 500 μg/ml 4 hours) was “reduced” in each case. Further, in assay [1] (MQ alone, 50 μM overnight, no TLR agonist), the “production of IL-6” value is “not found to increase”. The “cytokine production, other TLR pathways” value in assay [1] (PAM3CSK4, FSL, Lipopolysaccharide, Imiquimod, ODN2006, various concentrations) is “did not exhibit any significant inhibitory effects”.
Turning to `CCCCCCCCCCCCCCCC(=O)N[C@@H](C(=O)O)[C@H](C)O` [NC, N-Palmitoyl-D-Threonine], the “TNFα release in response to TLR3 agonist Poly I:C” value in assay [2] (4-6 hours, ELISA) is on record as “reduced”. Also, the “TNFα release in response to TLR4 agonist LPS” value in assay [2] (LPS, 4-6 hours, ELISA) is “reduced; also recorded: significantly less”. Also, in assay [2] (unstimulated), the “TNFα release in the absence of LPS stimulation” value is “did not increase; also recorded: does not increase”. In addition, in assay [2] (TLR1/2, TLR5, TLR6/2, TLR7, TLR9 agonists), the “TNFα release in response to other TLR agonists” value is “did not significantly reduce”.
